Data from patent US11065220B2, “Anti-pathogenic therapeutic compositions” (Wintermute Biomedical, Inc., priority 2017, dated 2021).

Assays:
[1] = test system: MRSA; experiment: Iodonitrotetrazolium chloride assay of MRSA growth, various anthraquinones with L-Arg and UCA; assay type: cell-based, Staphylococcus aureus; settings: FIG. 20
Description: Although the WT13-13 example compound described herein uses cassic acid (rhein) as the anthraquinones, other anthraquinones may be used. This is illustrated in FIG. 20, for example. In FIG. 20, antibiotic effects of other anthraquinones were tested against MRSA. As shown, identical ratios of L-Arg and UCA were combined with various anthraquinones, including cassic acid (Rhein), aloe-emodin (AloeE), and chrysophanol (Chyrs.). Formulations were tested for MRSA growth using an iodonitrotetrazolium chloride assay. Each compound was MRSA was assayed in media control and subtracted from the values taken from the wells containing MRSA to control for colorimetric alterations. Each MRSA well contained 100,000 CFUs in 100 microliters.
As shown in FIG. 20 discussed above, in addition to cassic acid, other anthraquinones were tested for activity using an iodonitrotetrazolium chloride assay. Each anthraquinone was assayed for activity against one or more pathogen. In FIG. 20 activity was tested against MRSA growth.

[2] = test system: MRSA; experiment: In-vitro resistance study, repeated sub-inhibitory exposures of MRSA; assay type: cell-based, Staphylococcus aureus; settings: sub-inhibitory concentrations
Description: A number of standard in-vitro resistance studies were conducted to predict the onset and mechanism of resistance for an anti-pathogenic compound such as WT13-13. The standard test comprises exposing bacteria to sub-inhibitory concentrations of an antibiotic over a number of exposures and monitoring the bacterial growth. As the bacteria develop resistance to the drug, the growth rate will rise. Tests were performed by treating MRSA with sub-inhibitory concentrations of both WT13-13 and mupirocin (separately) in order to study the behavior of WT13-13 and compare with that of mupirocin. The horizontal dotted lines represent the ideal, non-resistant behavior. That is, if an antibiotic were effective and the bacteria not developing resistance to it, its growth curve would be flat and follow the dotted line. However, all antibiotics to date experience bacterial resistance and trend upwards of the dotted line, towards the MRSA-only control line (if an antibiotic reaches the control line, it is completely ineffective and the bacteria is resistant to the antibiotic). […] The shading 1201 highlights this behavior. […] The shading 1203 highlights this behavior. […] Such “anti-resistance” has not been reported in an antibiotic before.

SMILES	inhibition of MRSA growth [1]	development of resistance over multiple exposures (growth trend) [2]
O=C(O)C(=O)O [oxcalic acid]	Inhibition of growth	–
C/C(=C\C(=O)OCCCCCCCCC(=O)O)C[C@@H]1OC[C@H](C[C@@H]2O[C@H]2[C@@H](C)[C@H](C)O)[C@@H](O)[C@H]1O [mupirocin]	–	trends upwards towards the control line
O=C1c2cccc(O)c2C(=O)c2c(O)cccc21 [dantron]	Inhibition of growth	–
